Test results taken from patent US9873699B1, “Anti-cancer agents” (KING SAUD UNIVERSITY, priority 2017, dated 2018).

The molecules below were run on FaDu hypopharyngeal tumor cells (assay: Cytotoxicity assay (MTT)). Conditions: 48 h.
Format: cell-based
Procedure: The synthesized series of compounds 4a-m stock solution were prepared by dissolved in DMSO (Sigma-Aldrich, St. Louis, Mo., USA) or dH2O. The stock solutions were diluted with cell culture medium and used as a working solution. Different concentration of working solution was exposed to 5 to 7×10^3 cells seeded 96 well plates after 24 h incubation. DMSO/dH2O was used as the solvent control. Nuclear morphological changes were monitored and photographed following treatment of synthesized compounds for 48 h using inverted microscope (Carl Zeiss, Jena, Germany). After incubation, plates were centrifuged and washed with cell culture medium. Subsequently, 20 μL of MTT solution [5 mg/mL in phosphate-buffered saline (PBS)] was added to each well, and the plates were protected from light and kept in CO2 incubator at 37° C. for 4 h. The purple color formazan product was formed and dissolved in 100 μL of DMSO. The absorbance was monitored at 570 nm (measurement) and 630 nm (reference) using a 96 well plate reader (Bio-Rad, Hercules, Calif., USA). Data were collected for four replicates each and used to calculate the median effect dose or concentration, i.e., IC50 using the Calcusyn software.
The cytotoxicity of synthesized compounds 4(a-m) on FaDu hypopharyngeal tumor cells was assessed for 48 h, in comparison with the commercial anti-cancer drug bleomycin under identical conditions (FIGS. 6&7). […] The percentage of apoptotic cells is indicated by the histograms and the data shown are the means from triplicates. Vertical bars represent standard error of the mean.

Molecule | cytotoxicity against cancer cells (in words)
5′-benzyl-4′-(2,4-dichloropheynyl)-5-spiro[3,2′]oxindolopyrrolidino-4′-(2,4-dichlorophenyl-1″-styryl-5-benzylidene-spiro[3′.3″]piperidi-4″-one [Compound 4e] | good cytotoxicity
5′-benzyl-4′-(4-bromopheynyl)-5-spiro[3,2′]oxindolopyrrolidino-4′-(4-bromophenyl-1″-styryl-5-benzylidene-spiro[3′.3″]piperidi-4″-one [Compound 4c] | good cytotoxicity
5′-benzyl-5-spiro[3,2′]oxindolopyrrolidino-4′-(methylphenyl)-1″-styryl-5-benzylidene-spiro[3′.3″]piperidi-4″-one [Compound 4a] | excellent cytotoxic property
O=C1Nc2ccccc2C12NC(Cc1ccccc1)C(c1ccccc1Cl)C21CN(C=Cc2ccccc2)CC(=Cc2ccccc2Cl)C1=O (stereo not drawn) [Compound 4d] | good cytotoxicity
Cc1ccccc1C=C1CN(C=Cc2ccccc2)CC2(C1=O)C(c1ccccc1C)C(Cc1ccccc1)NC21C(=O)Nc2ccccc21 (stereo not drawn) [Compound 4g, 5′-benzyl-4′-(2-tolyl)-5-spiro[3,2′]oxindolopyrrolidino-4′-(2-methylphenyl)-1″-styryl-5-benzylidene-spiro[3′.3″]piperidi-4″-one] | excellent cytotoxic property
Cc1cccc(C=C2CN(C=Cc3ccccc3)CC3(C2=O)C(c2cccc(C)c2)C(Cc2ccccc2)NC32C(=O)Nc3ccccc32)c1 (stereo not drawn) [Compound 4h, 5′-benzyl-4′-(3-tolyl)-5-spiro[3,2′]oxindolopyrrolidino-4′-(3-methylphenyl)-1″-styryl-5-benzylidene-spiro[3′.3″]piperidi-4″-one] | good cytotoxicity
